The target in one assay is Carbonic anhydrase 2 (Homo sapiens, UniProt P00918). The experiment in a line: Inhibition of human recombinant carbonic anhydrase 2 assessed as CO2 hydration preincubated for 15 mins prior to testing measured for 10 to 100 secs by phenol red dye-based stopped-flow assay.
The next assay addresses Carbonic anhydrase 1 (Homo sapiens, UniProt P00915). The experiment in a line: Inhibition of human recombinant carbonic anhydrase 1 assessed as CO2 hydration preincubated for 15 mins prior to testing measured for 10 to 100 secs by phenol red dye-based stopped-flow assay.
For a further assay, the target named is Carbonic anhydrase 9 (Homo sapiens, UniProt Q16790). Put plainly: Inhibition of human recombinant carbonic anhydrase 9 assessed as CO2 hydration preincubated for 15 mins prior to testing measured for 10 to 100 secs by phenol red dye-based stopped-flow assay.
The target in a further assay is Carbonic anhydrase 7 (Homo sapiens, UniProt P43166). The experiment in a line: Inhibition of human recombinant carbonic anhydrase 7 assessed as CO2 hydration preincubated for 15 mins prior to testing measured for 10 to 100 secs by phenol red dye-based stopped-flow assay.
For assay [1], the system named is Mus musculus. The experiment in a line: Anticonvulsant activity in Swiss albino mouse assessed as protection against maximal electroshock-induced seizures at 100 mg/kg, ip administered 0.5 hrs prior to 50 mA current induction relative to control. In general terms: The maximal electroshock test induces tonic seizures with an electrical stimulus.
Assay [2] deals with Mus musculus. Put plainly: Anticonvulsant activity in Swiss albino mouse assessed as protection against maximal electroshock-induced seizures at 100 mg/kg, ip administered 0.5 hrs prior to 50 mA current induction relative to control. Format: functional.
In assay [3] the test system is Mus musculus. The experiment in a line: Anticonvulsant activity in Swiss albino mouse assessed as protection against maximal electroshock-induced seizures at 30 mg/kg, ip administered 3 hrs prior to 50 mA current induction relative to control. It counts as functional.
Assay [4] deals with Mus musculus. Put plainly: Anticonvulsant activity in Swiss albino mouse assessed as protection against maximal electroshock-induced seizures at 30 mg/kg, ip administered 0.5 hrs prior to 50 mA current induction relative to control.
The subject of assay [5] is Mus musculus. Put plainly: Anticonvulsant activity in Swiss albino mouse assessed as protection against maximal electroshock-induced seizures at 30 mg/kg, ip administered 0.5 hrs prior to 50 mA current induction relative to control. Format: functional.
In assay [6] the test system is Mus musculus. Put plainly: Anticonvulsant activity in Swiss albino mouse assessed as protection against maximal electroshock-induced seizures at 100 mg/kg, ip administered 3 hrs prior to 50 mA current induction relative to control.
In assay [7] the test system is Mus musculus. The experiment in a line: Anticonvulsant activity in Swiss albino mouse assessed as protection against subcutaneous PTZ-induced seizures at 30 mg/kg, ip administered 3 hrs prior to PTZ-induction relative to control. It counts as functional.
Assay [8] concerns Mus musculus. The experiment in a line: Anticonvulsant activity in Swiss albino mouse assessed as protection against maximal electroshock-induced seizures at 30 mg/kg, ip administered 3 hrs prior to 50 mA current induction relative to control.
Assay [9] concerns Mus musculus. Put plainly: Anticonvulsant activity in Swiss albino mouse assessed as protection against subcutaneous PTZ-induced seizures at 100 mg/kg, ip administered 3 hrs prior to PTZ-induction relative to control. It counts as functional.
The test system of assay [10] is Mus musculus. The experiment in a line: Anticonvulsant activity in Swiss albino mouse assessed as protection against subcutaneous PTZ-induced seizures at 100 mg/kg, ip administered 0.5 hrs prior to PTZ-induction relative to control. Format: functional.
For assay [11], the system named is Mus musculus. Put plainly: Anticonvulsant activity in Swiss albino mouse assessed as protection against maximal electroshock-induced seizures at 100 mg/kg, ip administered 3 hrs prior to 50 mA current induction relative to control. It counts as functional.
Assay [12] concerns Mus musculus. The experiment in a line: Anticonvulsant activity in Swiss albino mouse assessed as protection against subcutaneous PTZ-induced seizures at 30 mg/kg, ip administered 0.5 hrs prior to PTZ-induction relative to control. Format: functional.

SMILES strings stand for the structures.

The term Ki denotes the dissociation constant of the complex between target and ligand, obtained from inhibition or displacement.

Chain of Carbonic anhydrase 1 (P00915 whole entry): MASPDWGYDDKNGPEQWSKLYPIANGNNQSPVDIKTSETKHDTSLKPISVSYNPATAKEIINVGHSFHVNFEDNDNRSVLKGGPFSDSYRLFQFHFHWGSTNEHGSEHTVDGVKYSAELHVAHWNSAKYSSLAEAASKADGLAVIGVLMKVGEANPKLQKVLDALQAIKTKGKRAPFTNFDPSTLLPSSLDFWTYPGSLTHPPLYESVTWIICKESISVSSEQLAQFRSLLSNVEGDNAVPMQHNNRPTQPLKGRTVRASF
Chain of Carbonic anhydrase 7 (P43166 whole entry): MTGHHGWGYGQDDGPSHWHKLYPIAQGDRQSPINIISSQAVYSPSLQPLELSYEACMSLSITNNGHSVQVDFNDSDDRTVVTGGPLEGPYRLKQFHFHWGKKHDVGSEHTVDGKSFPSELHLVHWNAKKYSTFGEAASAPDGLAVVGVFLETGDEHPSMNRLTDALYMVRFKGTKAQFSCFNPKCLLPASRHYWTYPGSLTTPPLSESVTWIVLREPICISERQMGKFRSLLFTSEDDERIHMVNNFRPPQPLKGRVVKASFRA

Take `NS(=O)(=O)c1ccc(N/N=C/c2ccc(N3CCN(C(=O)c4ccccc4)CC3)cc2)cc1`: the Ki on Carbonic anhydrase 2 was 2790 nM; on Carbonic anhydrase 1, over 10000 nM; on Carbonic anhydrase 9, 2490 nM; on Carbonic anhydrase 7, 127 nM.

In the case of `NS(=O)(=O)c1ccc(C(=O)N/N=C/c2ccc(N3CCN(c4ncccn4)CC3)cc2)cc1`, the Ki worked out at 963 nM at Carbonic anhydrase 2, 2060 nM at Carbonic anhydrase 1, 1840 nM on Carbonic anhydrase 9 and 132 nM on Carbonic anhydrase 7.

As to `NS(=O)(=O)c1ccc(C(=O)N/N=C/c2ccc(N3CCN(c4ccccn4)CC3)cc2)cc1`, the Ki was 4560 nM at Carbonic anhydrase 2, over 10000 nM on Carbonic anhydrase 1, 152 nM on Carbonic anhydrase 9 and 126 nM at Carbonic anhydrase 7.

Take `NS(=O)(=O)c1ccc(C(=O)N/N=C/c2ccc(N3CCN(C(=O)c4ccco4)CC3)cc2)cc1`: the Ki stood at 686 nM on Carbonic anhydrase 2, 9490 nM on Carbonic anhydrase 1, 30.4 nM at Carbonic anhydrase 9 and 78.8 nM on Carbonic anhydrase 7.

`NS(=O)(=O)c1ccc(N/N=C/c2ccc(N3CCN(C(=O)c4ccco4)CC3)cc2)cc1`: the Activity in the assay with Mus musculus [1] is 83%; with Mus musculus [2], 83%; in the assay on Mus musculus [3], 50%; in the assay on Mus musculus [4], 50%; in the assay with Mus musculus [5] it was 50%; in the assay on Mus musculus [6], 50%. Besides, the Activity in the assay with Mus musculus [7] came to 33%; with Mus musculus [8], 50%; in the assay with Mus musculus [9] it was 50%; in the assay with Mus musculus [10], 67%; in the assay with Mus musculus [11], 50%; in the assay with Mus musculus [12] it was 33%. Moreover, the Ki on Carbonic anhydrase 2 came to 30.8 nM; on Carbonic anhydrase 1 it was 322 nM; on Carbonic anhydrase 9, 1790 nM; on Carbonic anhydrase 7, 6.2 nM.

Turning to `NS(=O)(=O)c1ccc(N/N=C/c2ccc(N3CCN(c4ccccc4)CC3)cc2)cc1`, the Ki was found to be 888 nM at Carbonic anhydrase 2, 7860 nM at Carbonic anhydrase 1, 1240 nM at Carbonic anhydrase 9 and 98.4 nM at Carbonic anhydrase 7.

For the molecule `NS(=O)(=O)c1ccc(C(=O)N/N=C/c2ccc(N3CCN(c4ccc(F)cc4)CC3)cc2)cc1`, the inhibitory constant (Ki) on Carbonic anhydrase 2 is 822 nM; on Carbonic anhydrase 1, 5800 nM; on Carbonic anhydrase 9, 1960 nM; on Carbonic anhydrase 7, 147 nM.

For `NS(=O)(=O)c1ccc(C(=O)N/N=C/c2ccc(N3CCN(Cc4ccc5c(c4)OCO5)CC3)cc2)cc1`, the Ki on Carbonic anhydrase 2 is 962 nM; on Carbonic anhydrase 1 it was 8370 nM; at Carbonic anhydrase 9 it was 95.2 nM; at Carbonic anhydrase 7, 751 nM.

As to `NS(=O)(=O)c1ccc(C(=O)N/N=C/c2ccc(N3CCN(C(=O)OCc4ccccc4)CC3)cc2)cc1`, the Ki was found to be 1450 nM on Carbonic anhydrase 2, 9640 nM on Carbonic anhydrase 1, 1900 nM on Carbonic anhydrase 9 and 121 nM on Carbonic anhydrase 7.

In the case of `Cc1ccc(N2CCN(c3ccc(/C=N/Nc4ccc(S(N)(=O)=O)cc4)cc3)CC2)c(C)c1`, the Ki at Carbonic anhydrase 2 was determined as 553 nM; on Carbonic anhydrase 1, 4110 nM; at Carbonic anhydrase 9 it was 1740 nM; at Carbonic anhydrase 7, 72 nM.

With `NS(=O)(=O)c1ccc(N/N=C/c2ccc(N3CCN(c4ncccn4)CC3)cc2)cc1`, the Ki is 8400 nM at Carbonic anhydrase 2, over 10000 nM on Carbonic anhydrase 1, 2230 nM on Carbonic anhydrase 9 and 607 nM at Carbonic anhydrase 7.

Take `NS(=O)(=O)c1ccc(N/N=C/c2ccc(N3CCN(c4ccccn4)CC3)cc2)cc1`: the Ki at Carbonic anhydrase 2 is 4590 nM; at Carbonic anhydrase 1, over 10000 nM; at Carbonic anhydrase 9, 235 nM; on Carbonic anhydrase 7, 135 nM.

For the molecule `NS(=O)(=O)c1ccc(N/N=C/c2ccc(N3CCN(c4ccc(F)cc4)CC3)cc2)cc1`, the Ki turned out to be 559 nM on Carbonic anhydrase 2, 2380 nM on Carbonic anhydrase 1, 1270 nM at Carbonic anhydrase 9 and 49.6 nM at Carbonic anhydrase 7.

Regarding `NS(=O)(=O)c1ccc(C(=O)N/N=C/c2ccc(N3CCN(c4ccccc4)CC3)cc2)cc1`, the Ki is 4130 nM at Carbonic anhydrase 2, over 10000 nM on Carbonic anhydrase 1, 276 nM on Carbonic anhydrase 9 and 181 nM on Carbonic anhydrase 7.

Consider `NS(=O)(=O)c1ccc(C(=O)N/N=C/c2ccc(N3CCN(Cc4ccccc4)CC3)cc2)cc1`, for which the Ki turned out to be 414 nM on Carbonic anhydrase 2, 7100 nM on Carbonic anhydrase 1, 163 nM on Carbonic anhydrase 9 and 41.5 nM at Carbonic anhydrase 7.

For the molecule `NS(=O)(=O)c1ccc(C(=O)N/N=C/c2ccc(N3CCN(C(=O)c4ccccc4)CC3)cc2)cc1`, the Ki on Carbonic anhydrase 2 stood at 308 nM; at Carbonic anhydrase 1, 5500 nM; on Carbonic anhydrase 9 it was 1050 nM; on Carbonic anhydrase 7, 94.7 nM.

For `NS(=O)(=O)c1ccc(C(=O)N/N=C/c2ccc(N3CCN(c4ccc(C(F)(F)F)cc4)CC3)cc2)cc1`, the Ki at Carbonic anhydrase 2 turned out to be 556 nM; on Carbonic anhydrase 1, 8160 nM; on Carbonic anhydrase 9, 1850 nM; on Carbonic anhydrase 7, 148 nM.

For `NS(=O)(=O)c1ccc(N/N=C/c2ccc(N3CCN(C(=O)OCc4ccccc4)CC3)cc2)cc1`, the Activity with Mus musculus [1] amounted to 50%; in the assay on Mus musculus [2], 50%; in the assay with Mus musculus [3], 33%; in the assay with Mus musculus [4], 50%; in the assay on Mus musculus [5], 50%; with Mus musculus [6], 67%. Besides, the Activity amounted to 67% in the assay on Mus musculus [7]; 33% with Mus musculus [8]; 33% in the assay with Mus musculus [9]; 67% with Mus musculus [10]; 67% in the assay on Mus musculus [11]; 50% with Mus musculus [12]. Besides, the Ki stood at 93.9 nM at Carbonic anhydrase 2, 920 nM at Carbonic anhydrase 1, 1630 nM at Carbonic anhydrase 9 and 11.4 nM on Carbonic anhydrase 7.

For `NS(=O)(=O)c1ccc(N/N=C/c2ccc(N3CCN(c4ccc(C(F)(F)F)cc4)CC3)cc2)cc1`, the Ki is 7520 nM at Carbonic anhydrase 2, 9470 nM on Carbonic anhydrase 1, 1930 nM at Carbonic anhydrase 9 and 118 nM at Carbonic anhydrase 7.

Source of the values: ChEMBL document CHEMBL4270557, “Discovery of potent anti-convulsant carbonic anhydrase inhibitors: Design, synthesis, in vitro and in vivo appraisal” (Eur J Med Chem, 2018).
